Data from patent US6894050B2, “5-HT receptor ligands and uses thereof” (Pfizer Inc., priority 2001, dated 2005).
pKi: −log10 of the molar value. Where a name gives a salt, the structure may show the parent alone. Blank lines part the entries; values can stand above or below the molecule they belong to.

What was measured:
human 5HT2c receptor = biological target: T1, human 5HT2c receptor (Homo sapiens, UniProt P28335); assay: 5HT2c Binding Procedure (competition binding against 3H-5HT); conditions: Swiss 3T3 mouse cells transfected with human 5HT2c receptor
T1 construct: expressed in transfected cells; host or cells: Swiss 3T3 mouse cells
T1 sequence (P28335 33-458): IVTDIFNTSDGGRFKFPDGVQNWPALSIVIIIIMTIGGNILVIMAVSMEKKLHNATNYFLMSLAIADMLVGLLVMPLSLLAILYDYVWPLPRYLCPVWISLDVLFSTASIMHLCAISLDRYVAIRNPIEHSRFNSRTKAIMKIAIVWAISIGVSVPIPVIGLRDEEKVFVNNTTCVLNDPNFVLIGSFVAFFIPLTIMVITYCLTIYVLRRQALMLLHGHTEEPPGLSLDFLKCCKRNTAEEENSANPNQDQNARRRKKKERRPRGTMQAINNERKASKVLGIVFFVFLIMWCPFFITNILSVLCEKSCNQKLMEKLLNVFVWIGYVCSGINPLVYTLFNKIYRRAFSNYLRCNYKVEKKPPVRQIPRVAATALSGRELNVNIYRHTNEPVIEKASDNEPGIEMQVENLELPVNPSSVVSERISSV
Experimental: Affinity of compounds at the serotonin 5HT2c binding site was determined by competition binding in Swiss 3T3 mouse cells (available from the American Type Culture Collection (ATCC), Manassas, Va.) transfected with the human 5HT2c receptor against 3H-5HT. The method was adapted from Roth et al., J. of Pharm. And Exp. Therap., 260(3), 1362-1365 (1992). Cells were grown in DMEM high glucose medium, harvested, homogenized, centrifuged, and resuspended in 50 mM Tris-HCL. They were incubated at 37° C. for 15 minutes, centrifuged, and then resuspended into assay buffer (50 mM Tris-HCl, 4 mM CaCl2, 0.1% ascorbic acid, and 100 μM pargyline at pH 7.7) at 100 volumes per gram. Assay tubes contained 25 μL of 10 nM ^3H-5HT (1 nM final conc.), and 25 μl of vehicle (assay buffer), blank (10 μM mianserin), or test compound (10× final volume). 200 μl of tissue homogenate was added to each tube, vortexed, and incubated for 30 minutes at 37° C. Samples were then rapidly filtered under vacuum with a Skatron™ cell harvester (available from Molecular Devices Corporation, Sunnyvale, Calif.) using GF/B filters presoaked in 0.5% polyethyleneimine (PEI), and washed with 2×5 mL cold 50 mM Tris-HCl. Filter mats were removed and counted in a Wallac Betaplate counter (available from PerkinElmer Life Sciences, Gaithersburg, Md.). […]

conscious male rat = assay: Intracavernosal pressure (ICP) by telemetric recording in the conscious male rat; type: in vivo
From the text: ICP Protocol: Intra cavernosal pressure (ICP) can be measured in the conscious rat by means of telemetric recording. A catheter is surgically implanted into the corpus cavernosum. The end of the catheter is linked to a device, which senses, processes, and transmits information digitally from within the animal. A receiver converts the radio-frequency signal from the implant to a digital pulse stream that is readable by a data collection system. The PC-based system collects telemetred data from the animal.
Surgery:—Induce and maintain general anaesthesia using 5% Isoflurane® in a carrier gas of 0.5 L/min oxygen and 1 L/min nitrous oxide to induce anaesthesia, reducing to 2% Isoflurane for maintenance anaesthesia. Administer 5 mg/kg subcutaneously (s.c.) Carprofen (Rimadyl® Large Animal Injection, 50 mg/ml, Pfizer Animal Health) at induction of anaesthesia, at end of day of surgery and on the morning of first day post-surgery to minimise pain and discomfort.
Implantation of corpus cavernosal probe:—Shave the skin of the ventral abdomen and extend to include the area around the penis and ventral scrotum. Clean and disinfect the shaved area. Place the rat in dorsal recumbency. Make a mid-line incision from the external base of the penis, running caudally for approximately 2 cm. Locate and expose the internal structure of the penis and identify the corpus cavernosum. Make a mid-line laparotomy, approximately 4 cm in length to access the abdominal cavity. Pierce the abdominal wall via the caudal incision with a suitable trocar and cannula, taking care not to damage any internal organs. Place the implant body in the abdominal cavity with the catheter orientated caudally and pass the catheter tip through the body wall via the preplaced cannula. Implant used is model TA11PA-C40, 8 mm catheter, with modified 3 mm tip (Data Sciences International Inc.). Secure the implant body to the abdominal wall using non-absorbable sutures and partially close the abdominal incision. Reflect the tip of the penis cranially and retract the caudal incision to optimise the surgical field. Carefully isolate approximately 10 mm of the internal structure of the penis from the surrounding tissue. Carefully reflect the corpus spongiosum to one side to give access to the corpus cavernosum. Access the corpus cavernosum using a modified over-the-needle catheter to puncture the tunica. Introduce the catheter tip via the preplaced catheter and advance until fully inserted. Carefully remove the access catheter and apply a suitable tissue adhesive to the insertion site. Observe for leakage. Close the subcutaneous fat layer in the caudal incision before closing with an appropriate absorbable suture. Instil approximately 5 ml of warm saline through the abdominal incision and complete closure of the mid-line incision. Close the skin incision with an appropriate absorbable suture.
Postoperative care:—Measure food and water intake and monitor bodyweight daily for at least 7 days post surgery, then 2-3 times weekly. Give Lectade® (Pfizer Animal Health) in drinking water for 3 days post surgery. House rats singly, and transfer to reverse light/dark conditions 5 days post surgery. Named Veterinary Surgeon (or Deputy) to issue a certificate of fitness to continue 2 days post surgery. Start using rats experimentally 7 days post surgery.
Experimental Procedure:—Perform experiment in room with reverse light/dark conditions. […] Take baseline reading of intra cavernosal pressure (ICP) for approximately 5 minutes. […]

[1] = tested on: anaesthetised rabbit model of erection; assay: Penile ICP in anaesthetised rabbit model of erection, combination with PDE5 inhibitor; type: in vivo; conditions: 5-10 mg/kg s.c. with selective PDE5 inhibitor 1 mg/kg i.v.
Experimental: The effects of concomitant administration of compound(s) of formula (I) in combination with a PDE5 inhibitor on the penile intracavernosal pressure (ICP) in an anaesthetised rabbit model of erection can be measured according to the following protocol.
Male New Zealand rabbits (˜2.5 kg) are pre-medicated with a combination of Medetomidine (Domitor®) 0.5 ml/kg inramuscularly (i.m.), and Ketamine (Vetalar®) 0.25 ml/kg i.m. whilst maintaining oxygen intake via a face mask. The rabbits are tracheotomised using a Portex™ uncuffed endotracheal tube 3 ID (internal diameter), connected to ventilator and maintained at a ventilation rate of 30-40 breaths per minute, with an approximate tidal volume of 18-20 ml, and a maximum airway pressure of 10 cm H2O. Anaesthesia was then switched to Isoflurane® and ventilation continued with O2 at 2 liters/min. The right marginal ear vein was cannulated using a 23G or 24G catheter, and Lactated Ringer solution perfused at 0.5 ml/min. […]
The left groin area of the rabbit was shaved and a vertical incision was made approximately 5 cm in length along the thigh. […] Systolic and diastolic pressures were measured, and the mean arterial pressure calculated using the formula (diastolic×2+systolic)÷3. Heart rate was measured via the pulse oxymeter and Po-ne-mah data acquisition software system (Ponemah Physiology Platform, Gould Instrument Systems Inc). […]

rat 5HT2A receptor = biological target: T2, rat 5HT2A receptor (Rattus norvegicus, UniProt P14842); assay: 5HT2A Binding Procedure (competition binding using 125I-DOI); conditions: NIH 3T3 mouse cells transfected with rat 5HT2A receptor, read-out: Ki values for 5HT2a binding (upper end of range)
T2 construct: expressed in transfected cells; host or cells: NIH 3T3 mouse cells
T2 sequence (P14842 whole entry): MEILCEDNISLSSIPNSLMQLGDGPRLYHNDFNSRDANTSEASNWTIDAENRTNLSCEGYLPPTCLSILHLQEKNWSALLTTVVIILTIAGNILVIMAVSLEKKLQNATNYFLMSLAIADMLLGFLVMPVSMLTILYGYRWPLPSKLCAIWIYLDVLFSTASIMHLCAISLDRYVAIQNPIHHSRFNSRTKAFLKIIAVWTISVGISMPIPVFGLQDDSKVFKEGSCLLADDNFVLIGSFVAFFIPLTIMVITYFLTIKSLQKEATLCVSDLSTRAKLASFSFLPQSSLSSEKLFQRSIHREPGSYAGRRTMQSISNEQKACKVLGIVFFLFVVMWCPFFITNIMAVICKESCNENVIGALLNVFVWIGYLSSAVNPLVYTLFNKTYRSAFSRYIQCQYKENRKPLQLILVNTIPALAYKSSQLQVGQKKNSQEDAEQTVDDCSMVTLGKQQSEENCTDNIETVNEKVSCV
Experimental: Affinity of compounds at the serotonin 5HT2A binding site was determined by competition binding in NIH 3T3 mouse cells transfected with the rat 5HT2A receptor using 125I-DOI. The method was adapted from Leonhardt et al., Molecular Pharmacology, 42, 328-335 (1992). Frozen cell paste was homgenized in 50 mM tris-HCl buffer pH 7.4 containing 2 mM MgCl2 using a Polytron and centrifuged at 45000×g for ten minutes. The resulting pellet was resuspended in fresh ice-cold 50 mM tris-HCl buffer pH 7.4 containing 2 mM MgCl2 using a Polytron™ and centrifuged again at 45000×g for ten minutes. The final pellet was resuspended in 50 mM tris-HCl buffer pH 7.4 containing 2 mM MgCl2 at a concentraion of 5 mg/mL. Wells in a 96 well plate contained 25 μL of 0.7 nM 125I-DOI (70 pM final conc.), and 25 μL of vehicle (assay buffer), blank (10 μM cinanserin), or test compound (10× final volume). […] Filter mats were removed, dried and counted in a Wallac Betaplate counter. Concentration-response curves of the % inhibition of specific binding and log concentration by test compounds were used to determine the IC50 for each compound and the Ki value calculated based on the Cheng-Prusof equation (Ki=IC50/(1+(L/Kd)), where L is the concentration of the radioligand used in the binding assay and the Kd was based on previous saturation studies with the radioligand.

pKi (human 5HT2c receptor): 6.23
Compound: c1ccc(COc2cncc(N3CCNCC3)n2)nc1 [Example 1-AW, 6′-(Pyridin-2-ylmethoxy)-3,4,5,6-tetrahydro-2H-[1,2′]bipyrazinyl hydrochloride salt]

Compound: Fc1ccc(F)c(COc2cncc(N3CCNCC3)n2)c1 [Example 1-M, 6′-(2,5-Difluoro-benzyloxy)-3,4,5,6-tetrahydro-2H-[1,2′]bipyrazinyl]
number of erectogenic events in a 15 minute test period (conscious male rat; 5 mg/kg s.c.): significantly increased | number of erectogenic events induced at 120 minutes after dosing (conscious male rat; 120 minutes after dosing): no difference | proerectile effects in the conscious rat (conscious male rat; conscious rat): induced proerectile effects | Number of erectogenic events @ 60 min (conscious male rat; conscious rat, 5 mg/kg s.c., 15 minute period, 60 min post injection): 1.5 ± 0.3 | Number of erectogenic events @ 120 min (conscious male rat; conscious rat, 5 mg/kg s.c., 15 minute period, 120 min post injection): 1.3 ± 0.5 | effects on ICP of concomitant administration with PDE5 inhibitor [1]: beneficial effects on ICP

pKi (rat 5HT2A receptor): 6.00
Compound: Cc1cccc(CNc2cncc(N3CCNCC3)n2)n1 [Example 4-R, (6-Methyl-pyridin-2-ylmethyl)-(3,4,5,6-tetrahydro-2H-[1,2′]bipyrazinyl-6′-yl)-amine fumarate salt]
